Test results reported in ChEMBL document CHEMBL1201862, “PubChem BioAssay data set” (2004).
Where “and” joins values, the source holds several entries; their conditions need not be identical. Equal values may be shown once.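 Step 1: Grow cells in 96-well plates. Step 2: Expose to compound for 48 hours at 5 concentrations. Step 3: Interpolate endpoints linearly; if unreached, use highest concentration. GI50 is the concentration that inhibits growth by half.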 Calls of active or inactive are those of the source. Cut-off read from the data, not from the text of the source: active = GI50 up to about 1.1 µM and inactive = higher.

Experiments:
Experiment in all cases: growth of human tumour cells (NCI), 48 h
[1] = test system: 786-0
[2] = test system: A498
[3] = test system: A549
[4] = test system: ACHN
[5] = test system: BT-549
[6] = test system: CAKI-1
[7] = test system: CCRF-CEM
[8] = test system: COLO 205
[9] = test system: DU-145
[10] = test system: EKVX
[11] = test system: HCC 2998
[12] = test system: HCT-116
[13] = test system: HCT-15
[14] = test system: HL-60
[15] = test system: HOP-62
[16] = test system: HOP-92
[17] = test system: HT-29
[18] = test system: Hs-578T
[19] = test system: IGROV-1
[20] = test system: K562
[21] = test system: KM12
[22] = test system: M14
[23] = test system: MCF7
[24] = test system: MDA-MB-435
[25] = test system: MOLT-4
[26] = test system: Malme-3M
[27] = test system: NCI-H23
[28] = test system: NCI-H460
[29] = test system: NCI-H522
[30] = test system: NCI/ADR-RES
[31] = test system: OVCAR-3
[32] = test system: OVCAR-4
[33] = test system: OVCAR-5
[34] = test system: OVCAR-8
[35] = test system: PC-3
[36] = test system: RPMI-8226
[37] = test system: RXF 393
[38] = test system: SF-268
[39] = test system: SF-295
[40] = test system: SF-539
[41] = test system: SK-MEL-28
[42] = test system: SK-MEL-2
[43] = test system: SK-MEL-5
[44] = test system: SK-OV-3
[45] = test system: SN12C
[46] = test system: SNB-19
[47] = test system: SNB-75
[48] = test system: SW-620
[49] = test system: T47D
[50] = test system: TK-10
[51] = test system: U-251
[52] = test system: UACC-257
[53] = test system: UO-31
[54] = test system: LOX IMVI
[55] = test system: SR
[56] = test system: MDA-MB-231
[57] = test system: NCI-H226
[58] = test system: UACC-62

In the case of `COc1cc(C2C3=C(NC(=O)C2C#N)c2ccc4ccccc4c2OCC3)cc(OC)c1OC` (stereo not drawn), the GI50 [1] is reported as 31.5 µM (inactive), the GI50 [2] is reported as 12.4 µM (inactive) and the GI50 [3] is reported as 54.2 µM (inactive). The GI50 [4] was 16.6 µM (inactive), the GI50 [5] was 17.3 µM (inactive) and the GI50 [6] was 20.1 µM (inactive). The GI50 [7] was 70.8 µM (inactive), the GI50 [8] was 15.4 µM (inactive) and the GI50 [9] was 34.4 µM (inactive). For the same compound, the GI50 [10] was 89.7 µM (inactive), the GI50 [11] was 25 µM (inactive) and the GI50 [12] was 15.7 µM (inactive). For the same compound, the GI50 [13] was 41.8 µM, the GI50 [14] was 27 µM (inactive) and the GI50 [15] was 20 µM (inactive). The GI50 [16] was 10.4 µM (inactive), the GI50 [17] was 33 µM (inactive) and the GI50 [18] was 20.9 µM (inactive). The GI50 [19] was 16.2 µM (inactive), the GI50 [20] was 44.6 µM (inactive) and the GI50 [21] was 44.9 µM (inactive). The GI50 [22] was 50 µM (inactive), the GI50 [23] was 30.9 µM (inactive) and the GI50 [24] was 41.7 µM (inactive). The GI50 [25] was 34.2 µM (inactive), the GI50 [26] was 17.8 µM (inactive) and the GI50 [27] was 41.3 µM (inactive). The GI50 [28] was 25.9 µM (inactive), the GI50 [29] was 28.9 µM (inactive) and the GI50 [30] was 30.4 µM (inactive). For the same compound, the GI50 [31] was 45 µM (inactive), the GI50 [32] was 48 µM (inactive) and the GI50 [33] was 17.6 µM (inactive). The GI50 [34] was 86.7 µM (inactive), the GI50 [35] was 49.3 µM (inactive) and the GI50 [36] was 7.83 µM (inactive). The GI50 [37] was 14.4 µM (inactive), the GI50 [38] was 22.8 µM (inactive) and the GI50 [39] was 27.6 µM (inactive). The GI50 [40] was 18.7 µM (inactive), the GI50 [41] was 18.3 µM (inactive) and the GI50 [42] was 22.1 µM (inactive). The GI50 [43] was 28.2 µM (inactive), the GI50 [44] was 17.2 µM (inactive) and the GI50 [45] was 18.1 µM (inactive). The GI50 [46] was 28.3 µM (inactive), the GI50 [47] was 16.2 µM (inactive) and the GI50 [48] was 78.7 µM (inactive). For the same compound, the GI50 [49] was 12.2 µM (inactive), the GI50 [50] was > 100 µM (inactive) and the GI50 [51] was 16.7 µM (inactive). For the same compound, the GI50 [52] was 56.5 µM (inactive) and the GI50 [53] was 15.1 µM (inactive).
For `CC(C)(C)C1CCC2c3c([nH]c4ccccc34)C3C(=O)N(c4ccc(Cl)cc4)C(=O)C3C2C1` (stereo not drawn), the GI50 [2] was > 10 µM (inactive), the GI50 [5] was > 100 µM (inactive) and the GI50 [7] was > 10 µM (inactive) and 19.5 µM (inactive). For the same compound, the GI50 [14] was > 10 µM (inactive) and 17.7 µM (inactive), the GI50 [54] was 0.012 µM (active) and the GI50 [23] was 31.3 µM (inactive). The GI50 [26] was > 10 µM (inactive), the GI50 [33] was 0.0209 µM (active) and the GI50 [42] was > 10 µM (inactive). For the same compound, the GI50 [55] was > 10 µM (inactive) and 18 µM (inactive).
With `Cc1c(-c2c(C)c3ccccc3n2S(=O)(=O)c2ccccc2)n(S(=O)(=O)c2ccccc2)c2ccccc12` the GI50 [1] was 0.019 µM (active), the GI50 [2] was > 100 µM (inactive) and the GI50 [5] was > 100 µM (inactive). The GI50 [6] was 0.336 µM (active), the GI50 [7] was > 100 µM (inactive) and the GI50 [10] was > 100 µM (inactive). For the same compound, the GI50 [14] was > 100 µM (inactive), the GI50 [16] was > 100 µM (inactive) and the GI50 [18] was > 100 µM (inactive). For the same compound, the GI50 [20] was > 100 µM (inactive), the GI50 [22] was > 22.2 µM (inactive) and the GI50 [56] was > 56.4 µM (inactive). For the same compound, the GI50 [24] was > 100 µM (inactive), the GI50 [25] was > 100 µM (inactive) and the GI50 [26] was 0.0299 µM (active). For the same compound, the GI50 [57] was > 39.9 µM (inactive), the GI50 [27] was > 72.8 µM (inactive) and the GI50 [28] was 0.0407 µM (active). For the same compound, the GI50 [29] was > 100 µM (inactive), the GI50 [30] was > 80 µM (inactive) and the GI50 [31] was 5.62 µM (inactive). The GI50 [33] was > 51.6 µM (inactive), the GI50 [35] was > 37.1 µM (inactive) and the GI50 [36] was > 100 µM (inactive). The GI50 [38] was > 100 µM (inactive), the GI50 [39] was > 100 µM (inactive) and the GI50 [40] was 0.0371 µM (active). The GI50 [41] was > 100 µM (inactive), the GI50 [42] was > 37.5 µM (inactive) and the GI50 [44] was > 82.6 µM (inactive). The GI50 [46] was > 93.5 µM (inactive), the GI50 [47] was > 31.6 µM (inactive) and the GI50 [50] was > 100 µM (inactive). For the same compound, the GI50 [52] was > 100 µM (inactive), the GI50 [58] was > 29.1 µM (inactive) and the GI50 [53] was > 100 µM (inactive).
In the case of `O=CN1CCN(C(=O)c2ccc(Cl)c(Cl)c2)C1=S`, the GI50 [1] is reported as 4.53 µM (inactive), the GI50 [2] is reported as 15.8 µM (inactive) and the GI50 [3] is reported as 17.7 µM (inactive). The GI50 [4] was 17.3 µM (inactive), the GI50 [5] was 18 µM (inactive) and the GI50 [6] was 14.9 µM (inactive). The GI50 [7] was 7.13 µM (inactive), the GI50 [8] was 20 µM (inactive) and the GI50 [9] was 15.7 µM (inactive). For the same compound, the GI50 [10] was 17.5 µM (inactive), the GI50 [11] was 18.5 µM (inactive) and the GI50 [12] was 16.3 µM (inactive). The GI50 [13] was 19.3 µM, the GI50 [14] was 24.6 µM (inactive) and the GI50 [15] was 16.1 µM (inactive). The GI50 [17] was 19.4 µM (inactive), the GI50 [18] was 39.5 µM (inactive) and the GI50 [19] was 15.1 µM (inactive). For the same compound, the GI50 [20] was 13.8 µM (inactive), the GI50 [21] was 15.7 µM (inactive) and the GI50 [54] was 9.29 µM (inactive). The GI50 [22] was 16.8 µM (inactive), the GI50 [23] was 4.63 µM (inactive) and the GI50 [56] was 14.6 µM (inactive). For the same compound, the GI50 [24] was 16.6 µM (inactive), the GI50 [25] was 22.8 µM (inactive) and the GI50 [26] was 20.5 µM (inactive). For the same compound, the GI50 [57] was 20.7 µM (inactive), the GI50 [27] was 20.9 µM (inactive) and the GI50 [28] was 19.2 µM (inactive). The GI50 [29] was 4.93 µM (inactive), the GI50 [30] was 32.9 µM (inactive) and the GI50 [31] was 15 µM (inactive). The GI50 [32] was 18.2 µM (inactive), the GI50 [33] was 16.9 µM (inactive) and the GI50 [34] was 15 µM (inactive). For the same compound, the GI50 [35] was 14.7 µM (inactive), the GI50 [36] was 2.84 µM (inactive) and the GI50 [37] was 17.5 µM (inactive). For the same compound, the GI50 [38] was 22.2 µM (inactive), the GI50 [39] was 17.9 µM (inactive) and the GI50 [40] was 20.7 µM (inactive). For the same compound, the GI50 [41] was 18.2 µM (inactive), the GI50 [42] was 15.3 µM (inactive) and the GI50 [44] was 18.9 µM (inactive). For the same compound, the GI50 [45] was 13.6 µM (inactive), the GI50 [46] was 17.5 µM (inactive) and the GI50 [47] was 17.5 µM (inactive). The GI50 [48] was 19.4 µM (inactive), the GI50 [49] was 15.3 µM (inactive) and the GI50 [50] was 16.5 µM (inactive). The GI50 [51] was 12.5 µM (inactive), the GI50 [52] was 17.7 µM (inactive) and the GI50 [58] was 16 µM (inactive).
